Our source for the cytotoxicity and EC50 for cytotoxicity values is paper PMC12367838, “Relevance of kinetic interactions and co-formulants for plant protection product liver toxicity in vitro” (Archives of Toxicology, 2025).

Data set [1] deals with HepaRG cells. Kind of data set: Neutral red uptake (NRU) cytotoxicity assay. Format: cell-based, human. The note with it: 72 h, tested concentration range. The protocol:
(§1) Wild-type human hepatoma HepaRG cells obtained from Biopredic International (Saint Grégoire, France) were cultivated for 4 weeks in a Binder cell culture incubator maintained at 37 °C in a 5% humidified atmosphere with 5% CO2 before they were employed in this study. The 4 weeks consisted of 2 weeks of proliferation and 2 weeks of differentiation. […]
(§2) Cytotoxicity assays were performed in 96-well plates at a density of 9000 cells per well, and test compounds were incubated for 72 h. […] After the 30-min incubation with WST-1, absorbance was measured at 450 nm corrected by a reference at 620 nm (λexc = 450 nm/λemi = 620 nm) using an Infinite M200 PRO plate reader (Tecan; Männedorf, Switzerland). […] The absorbed dye was quantified by fluorescence measurement (λexc = 530 nm/λemi = 645 nm) on an Infinite M200 PRO plate reader (Tecan; Männedorf, Switzerland). Background corrected viability values of both assays were expressed as a percentage of untreated cells. […] Means and standard deviations for each treatment were calculated. […]

Data set [2] deals with HepaRG cells. Put plainly: WST-1 cytotoxicity assay. Format: cell-based, human. The note with it: WST-1 assay, 72 h incubation. The procedure: as §1, §2

Turning to `C#CCOc1ccc(CCNC(=O)C(OCC#C)c2ccc(Cl)cc2)cc1OC` (centres unmarked) [MDP, mandipropamid], the cytotoxicity entry in the data set with HepaRG cells [1] is “not cytotoxic in the tested concentration range”. Further, the EC50 for cytotoxicity in the data set on HepaRG cells [2] was 245 mg/L.
